{"source": "patent US20210302366A1", "about": "“Method for Pathogen Detection” (priority 2020, published 2021)", "key": {"Staphylococcus aureus": {"tested_on": "Staphylococcus aureus", "assay": "pathogen detection chip (differential drain current) with agar plating, Staphylococcus aureus", "format": "cell-based", "conditions": "for blips/sub-blips identified in the electrical signal: first 8 hours of culturing; for biological sample resistant or sensitive to the interacting agent: from electrical signal pattern and CFU; for trend of number of colony-forming unit (CFU) from agar plating: over the course of culturing", "excerpt": "(§1) The drain voltage Vds may cause a drain current Ids to be measured as the electrical signal. In some embodiments, during the course of culturing the biological sample 207A, metabolites and/or the ions of the biological sample 207A generated due to the interaction of which with the interacting agents 207B may cause the front gate voltage Vgs-fg to change and thus the change of drain voltage Vds as well as the measured drain current Ids. By analyzing the electrical signal of the differential drain current ΔIds, several characteristics of the biological sample 207A can be determined within a short time frame and at a relative low sample concentration. In some embodiments, the sensor 20 may occupies a footprint of 5 μm by 5 μm. A bias of +1.8V can be applied to the first gate 209 and a bias of −0.5V can be applied to the second gate 209′ during the measurement of drain current Ids.\n(§2) Two approaches can be used to measure the differential drain current ΔIds. One approach is to subtract the drain current Ids measured from a control group of the sensor 20 where no biological sample is introduced into the culturing medium 207 from the drain current Ids measured from an experimental group of the sensor 20 where biological sample is introduced into the culturing medium 207 during the course of culturing. The other approach is to subtract the initial drain current Ids (e.g. at t=0) from the drain current Ids measured from an experimental group of the sensor 20 where biological sample is introduced into the culturing medium 207 during the course of culturing. The latter approach can be adopted for real-time pathogen detection, and the former approach can be adopted in a more systematic study where the concentration of biological sample and the pH value of the culturing medium 207 can be recorded simultaneously.\n(§3) To prepare the culturing medium, 200 μL of non-buffered LB broth having predetermined dosages (including zero dosage) of interacting agent was inoculated with predetermined concentration of Staphylococcus aureus and cultured at a temperature of 37° C. The sample was subjected to the pathogen detection using the pathogen detection chip and sensor described herein with a front gate voltage of +1.8V and a back gate voltage of −0.5V for drain current Ids measurement at predetermined time points (e.g., at each hour). The differential drain current ΔIds can be determined using the two approaches previously described, including (1) subtracting the drain current Ids measured from a control group from the drain current Ids measured from an experimental group during the course of culturing; and (2) subtracting the initial drain current Ids (e.g. at t=0) from the drain current Ids measured from an experimental group during the course of culturing. When the former approach is taken, the concentration of biological sample can be determined by agar plating under the same environmental condition.\nSample preparation and measurement condition can be referred to those in Example 2A and are not repeated here for brevity."}, "Pseudomonas aeruginosa": {"tested_on": "Pseudomonas aeruginosa", "assay": "pathogen detection chip (differential drain current) with agar plating, Pseudomonas aeruginosa", "format": "cell-based", "conditions": "for biological sample resistant or sensitive to the interacting agent: from electrical signal pattern and CFU; for trend of number of colony-forming unit (CFU) from agar plating: over the course of culturing", "excerpt": "as §1, §2\nas §3, with “Pseudomonas aeruginosa” for “Staphylococcus aureus”\nSample preparation and measurement condition can be referred to those in Example 3A and are not repeated here for brevity. […] For example, in Example 3B, a differential drain current ΔIds of about 0.16 μA can be identified as a blip in the electrical signal."}, "Escherichia coli": {"tested_on": "Escherichia coli", "assay": "pathogen detection chip (differential drain current) with agar plating, Escherichia coli", "format": "cell-based", "conditions": "for differential drain current ΔIds, local maximum: 2nd hour of culturing", "excerpt": "as §1, §2\nas §3, with “Escherichia coli” for “Staphylococcus aureus”\nSample preparation and measurement condition can be referred to those in Example 4A and are not repeated here for brevity. […] For example, in Example 4B, a differential drain current ΔIds of greater than 0.07 μA (e.g., about 0.08 μA) can be identified as a blip in the electrical signal. In addition, a differential drain current ΔIds of about 0.04 μA can be identified as a sub-blip at the 6th hour. As previously described, electrical signal lower than 0.03 μA is not considered as a blip or a sub-blip in some of the embodiments."}, "Escherichia coli K12": {"tested_on": "Escherichia coli K12", "assay": "minimum inhibitory concentration (MIC) test", "format": "cell-based"}, "Escherichia coli pku57": {"tested_on": "Escherichia coli pku57", "assay": "microbe, parasite or virus in culture", "description": "To prepare the culturing medium, 200 μL of non-buffered LB broth having predetermined dosages (including zero dosage) of interacting agent was inoculated with predetermined concentration of Escherichia coli and cultured at a temperature of 37° C. The sample was subjected to the pathogen detection using the pathogen detection chip and sensor described herein with a front gate voltage of +1.8V and a back gate voltage of −0.5V for drain current Ids measurement at predetermined time points (e.g., at each hour). The differential drain current ΔIds can be determined using the two approaches previously described, including (1) subtracting the drain current Ids measured from a control group from the drain current Ids measured from an experimental group during the course of culturing; and (2) subtracting the initial drain current Ids (e.g. at t=0) from the drain current Ids measured from an experimental group during the course of culturing. When the former approach is taken, the concentration of biological sample can be determined by agar plating under the same environmental condition."}, "Klebsiella pneumoniae": {"tested_on": "Klebsiella pneumoniae", "assay": "pathogen detection chip (differential drain current) with agar plating, Klebsiella pneumoniae", "format": "cell-based", "quoted_text": "The drain voltage Vds may cause a drain current Ids to be measured as the electrical signal. In some embodiments, during the course of culturing the biological sample 207A, metabolites and/or the ions of the biological sample 207A generated due to the interaction of which with the interacting agents 207B may cause the front gate voltage Vgs-fg to change and thus the change of drain voltage Vds as well as the measured drain current Ids. By analyzing the electrical signal of the differential drain current ΔIds, several characteristics of the biological sample 207A can be determined within a short time frame and at a relative low sample concentration. […] A bias of +1.8V can be applied to the first gate 209 and a bias of −0.5V can be applied to the second gate 209′ during the measurement of drain current Ids.\nTo prepare the culturing medium, 200 μL of non-buffered LB broth having predetermined dosages (including zero dosage) of interacting agent was inoculated with predetermined concentration of Klebsiella pneumoniae and cultured at a temperature of 37° C. […]"}, "[1]": {"conditions": "from electrical signal pattern and CFU"}, "[2]": {"conditions": "throughout the first 9 hour of culturing"}}}
{"compound": "CC1(C)S[C@@H]2[C@H](NC(=O)[C@H](N)c3ccccc3)C(=O)N2[C@H]1C(=O)O", "note": "[Ampicillin]", "values": [{"measurement": "blips/sub-blips identified in the electrical signal", "setting": "Staphylococcus aureus", "result": "no blips or sub-blips (a differential drain current ΔIds showing local maximum lower than 0.03 μA is not identified as a blip or a sub-blip)"}, {"measurement": "biological sample resistant or sensitive to the interacting agent", "setting": "Staphylococcus aureus", "result": "sensitive"}, {"measurement": "trend of number of colony-forming unit (CFU) from agar plating", "setting": "Staphylococcus aureus", "result": "monotonic decreasing"}, {"measurement": "differential drain current ΔIds", "setting": "Staphylococcus aureus; throughout the first 8 hour of culturing", "result": "lower than 0.03 μA"}, {"measurement": "differential drain current ΔIds, blip", "setting": "Pseudomonas aeruginosa; 1st hour of culturing", "result": "about 0.16 μA"}, {"measurement": "biological sample resistant or sensitive to the interacting agent", "setting": "Pseudomonas aeruginosa", "result": "resistant"}, {"measurement": "trend of number of colony-forming unit (CFU) from agar plating", "setting": "Pseudomonas aeruginosa", "result": "monotonic increasing"}]}
{"compound": "NC[C@H]1O[C@H](O[C@H]2[C@H](O)[C@@H](O[C@H]3O[C@H](CO)[C@@H](O)[C@H](N)[C@H]3O)[C@H](N)C[C@@H]2N)[C@H](O)[C@@H](O)[C@@H]1O", "note": "[Kanamycin]", "values": [{"measurement": "differential drain current ΔIds, local maximum", "setting": "Escherichia coli", "result": "about 0.08 μA"}, {"measurement": "differential drain current ΔIds, sub-blip", "setting": "Escherichia coli; 6th hour of culturing", "result": "about 0.04 μA"}, {"measurement": "MIC", "setting": "Escherichia coli K12", "result": 25, "unit": "µg/mL"}, {"measurement": "MIC", "setting": "Escherichia coli pku57", "result": "< 50", "unit": "µg/mL"}]}
{"compound": "CN[C@@H]1[C@H](O)[C@H](NC)[C@H]2O[C@@]3(O)C(=O)C[C@@H](C)O[C@H]3O[C@@H]2[C@H]1O", "note": "[Spectinomycin]", "values": [{"measurement": "differential drain current ΔIds, local maximum", "setting": "Escherichia coli", "result": "about 0.05 μA"}, {"measurement": "biological sample resistant or sensitive to the interacting agent", "setting": "Escherichia coli; [1]", "result": "sensitive"}, {"measurement": "trend of number of colony-forming unit (CFU) from agar plating", "setting": "Escherichia coli; over the course of culturing", "result": "neither increasing or decreasing"}, {"measurement": "differential drain current ΔIds", "setting": "Escherichia coli; [2]", "result": "lower than 0.07 μA"}]}
{"compound": "Gentamicin", "values": [{"measurement": "differential drain current ΔIds, blip", "setting": "Klebsiella pneumoniae; 3rd hour of culturing, LB broth, 37° C.", "result": "about 0.15 μA"}, {"measurement": "biological sample resistant or sensitive to the interacting agent", "setting": "Klebsiella pneumoniae; [1]", "result": "resistant"}, {"measurement": "trend of number of colony-forming unit (CFU) from agar plating", "setting": "Klebsiella pneumoniae; over the course of culturing", "result": "monotonic increasing"}, {"measurement": "blips/sub-blips identified in the electrical signal", "setting": "Staphylococcus aureus", "result": "a blip at the 2nd hour and a sub-blip at the 5th hour"}, {"measurement": "biological sample resistant or sensitive to the interacting agent", "setting": "Staphylococcus aureus", "result": "resistant"}, {"measurement": "trend of number of colony-forming unit (CFU) from agar plating", "setting": "Staphylococcus aureus", "result": "monotonic increasing"}, {"measurement": "blips/sub-blips identified in the electrical signal", "setting": "Pseudomonas aeruginosa; first 9 hour of culturing", "result": "no blips or sub-blips (a differential drain current ΔIds showing local maximum lower than 0.03 μA is not identified as a blip or a sub-blip)"}, {"measurement": "biological sample resistant or sensitive to the interacting agent", "setting": "Pseudomonas aeruginosa", "result": "sensitive"}, {"measurement": "trend of number of colony-forming unit (CFU) from agar plating", "setting": "Pseudomonas aeruginosa", "result": "monotonic decreasing"}, {"measurement": "differential drain current ΔIds", "setting": "Pseudomonas aeruginosa; [2]", "result": "lower than 0.03 μA"}]}
